The values below come from patent US9920387B2, “Strain of marine oil-degrading bacteria, compounds obtained by fermentation and their applications” (THIRD INSTITUTE OF OCEANOGRAPHY,STATE OCEANIC ADMINISTRATION, priority 2014, dated 2018).

A short description of series [1]: Liquid surface tension (automatic interfacial tensiometer). The format is physicochemical. The method, then:
Test method of liquid surface tension: Inoculate the Alcanivorax dieselolei T6-6 single bacterium into MSM medium on clean workbench (with 2% n-hexadecane as the sole carbon source), and culture it in constant temperature air bath shaker incubator (28° C., 200 rpm/min) until thalli obviously grow (about 3 to 5 days), during which take out 10 ml fermentation liquid every 24 hours, and measure its surface tension values using automatic interfacial tensiometer (Manufacturer: Chengde Precision Testing Machine Co., Ltd; Model: JZ-200-a automatic interface tensiometer). […] (For refrigeration of supernatant and hydrophobic layer stratified after centrifugation, the surface tension should be measured when it gets to the room temperature. Thus, the result is comparability and credibility). When measuring liquid surface tension, pour 10 ml fermentation liquid of A. dieselolei T6-6 at temperature of 25° C. into a weighing cup, place the weighing cup in the center of the tray, press “▴” to make the platinum ring deep into 5 mm to 7 mm in the liquid, press “●” to stop; if the peak needs to be kept, firstly press “peak” button, and then press “▾”, the display value will increase gradually, and finally stay at the maximum; this maximum value is the actually measured value of surface tension of liquid, and then press “●” to stop, after the maximum value is recorded, press “reset” button. […]

A short description of series [2]: Determination of biosurfactant CMC values. Format: physicochemical. The settings on record: for CMC: water solution. An excerpt: Determination method of biosurfactant CMC values: prepare different concentrations of water solution from pure biosurfactants to be determined, and measure its surface tension with surface tension meter. With the increase of surface activity (concentration), the surface tension of water solution gradually […]. The surface tension stops decreasing when the concentration increases to a certain level. The amount of surfactant corresponding to this critical surface tension is CMC value.

The nature of series [3]: Determination of biosurfactant MAD (Minimum Active Dose) by oil expansion experiment. The format is physicochemical. An excerpt: Determination method of biosurfactant MAD (Minimum Active Dose) values: prepare different concentrations of water solution from pure biosurfactants to be determined, and measure the oil expansion activity through oil expansion experiment. With the decrease of concentration, the oil expansion ability of water solution becomes weaker and weaker, and completely disappears when the concentration decreases to a certain level. The amount of surfactant at the time of oil expansion ability disappearing is the MAD value.

Series [4] in a line: Biosurfactant emulsifying property (emulsion stable value). The format is physicochemical. How it is done:
In order to understand the emulsifying activity of lysine ester produced by strain Alcanivorax dieselolei T6-6, we determined the emulsifying stability value of lysine ester produced by strain Alcanivorax dieselolei T6-6 and the chemical surfactants Tween 20 and Triton X-100 against olive oil, n-hexane, dimethylbenzene, hexadecane and petroleum ether. Determination method of biosurfactant emulsifying property: add 5 ml commercially available diesel No. 0 and 5 ml surfactant solution (1%) into a test tube, treat it with ultrasonic generator at 800 W for 40 s, and measure the emulsion and oil phase at different times (0 to 24 hours). Emulsion stable value (Es %)=emulsified layer height (cm)/oil phase height (cm)×100. […] Lysine ester produced by strains Alcanivorax dieselolei T6-6 has a good emulsifying activity (83±1%) on olive oil, and can maintain […] at room temperature. Its emulsifying activity on four other organics is also more than 75%. Good emulsifying activity makes it greatly valuable in environmental pollution control.

Series [5] is described as follows: Oil expansion activity at different temperatures and pH values. Format: physicochemical. How it is done: Determination method of biosurfactant oil expansion activity: Take a culture dish, add water, and add 0.1 ml hexadecane on the water surface to form oil film. Add the fermentation liquid from the shake flask to the center of oil film to make the central film squeezed to form a circle, the diameter of which positively correlates to the concentration and activity of the biosurfactant. Strains with cycle diameter more than 3 cm are retained for further study. Set pH value in the range of 2 to 10 to determine effect of pH on lysine ester produced by the strain Alcanivorax dieselolei T6-6. Oil expansion diameter varies from 3.6 to 3.9 for lysine ester produced by the strain Alcanivorax dieselolei T6-6 with small fluctuation. It has a good acid and base resistance, and the activity is the highest at pH=8. Considering the structure, it can be inferred that this material is alkaline. And also, when adding a few drops of ammonia expansion on the running TLC plate, the substance will expand more fully, which also proves that it is alkaline.
Treat the pure lysine ester produced by strain Alcanivorax dieselolei T6-6 at temperatures of 20° C., 40° C., 60° C., 80° C. and 100° C. for one hour, and then determine its activity. […] Good thermal stability makes it possible for the substance to be used in high temperature fields.

Series [6] relates to Bacillus plakortidis. In words: Antibacterial activity, filter paper method. The format is cell-based. The settings on record: 28° C. An excerpt: (§1) Antibacterial activity test method: use filter paper method to detect antibacterial activity of biosurfactant produced by fermentation of strain Alcanivorax dieselolei T6-6. The indicator bacteria are Gram-negative bacteria, Gram-positive bacteria, endophytic pathogenic fungus in tea tree and yeasts. Specific steps: coat the well-shaken indicator bacteria on the culture plate, stick filter paper on each scribe region, and drip surfactant on filter paper. The control group is the methanol solvent of same amount. After bacteria are inverted cultured in constant temperature incubation at 28° C. for a certain period (different indicator bacteria have different growth cycles; bacteria grow quickly, but endophytic fungus in tea tree should grow 3-5 days), and observe the results to detect inhibition zone. If there is an inhibition zone, its size should be measured.

Series [7] concerns Bacillus rhizosphaerae. In words: Antibacterial activity, filter paper method. The settings on record: 28° C. The format is cell-based.
Text: as §1

In series [8] the test system is Bacillus safensis. The experiment in a line: Antibacterial activity, filter paper method. The format is cell-based. Conditions: 28° C.
Text: as §1

Series [9] concerns Bacillus thuringiensis. The experiment in a line: Antibacterial activity, filter paper method. Format: cell-based. Conditions: 28° C.
Text: as §1

Series [10] deals with Lysinibacillus sphaericus. The experiment in a line: Antibacterial activity, filter paper method. The format is cell-based. Conditions: 28° C.
Text: as §1

Series [11] deals with Ornithinibacillus bavariensis. In words: Antibacterial activity, filter paper method. Format: cell-based. The settings on record: 28° C.
Text: as §1

Series [12] deals with Pestalotiopsistheae. In words: Antibacterial activity, filter paper method. The format is cell-based. Conditions: 28° C.
Text: as §1

In series [13] the test system is Phomaexigua var. exigua. In words: Antibacterial activity, filter paper method. Format: cell-based. The settings on record: 28° C.
Text: as §1

Series [14] has as its system Rhodotorula mucilaginosa. The experiment in a line: Antibacterial activity, filter paper method. The format is cell-based. The settings on record: 28° C.
Text: as §1

In series [15] the test system is Campbell vibrio. The experiment in a line: Antibacterial activity, filter paper method. The format is cell-based. Conditions: bacteriostasis experiment.
Text: as §1
(§2) DH5 alpha, aeromonas hydrophila and Campbell vibrio.

The test system of series [16] is E. coli. DH5 alpha. The experiment in a line: Antibacterial activity, filter paper method. The format is cell-based. Conditions: bacteriostasis experiment.
Text: as §1, §2

The subject of series [17] is aeromonas hydrophila. The experiment in a line: Antibacterial activity, filter paper method. Format: cell-based. The settings on record: bacteriostasis experiment.
Text: as §1, §2

Series [18] relates to hepatoma cells 7402. The experiment in a line: Cytotoxic activity test, Cell Counting Kit-8. Format: cell-based. Conditions: 100 ug/ml, 48 hours. An excerpt: (§3) Cytotoxic activity test method: measure cytotoxic activity using a Cell Counting Kit-8 (CCK-8 kit for short and of Dojindo Laboratories, Japan), namely, […]. The human CCK octapeptide ELISA is a quick high-sensitivity detection kit based on WST-8 and widely applied to cell proliferation and cytotoxic activity. WST-8 is a compound similar to the MTT. With the presence of electronic coupling reagent, WST-8 can be reduced by some dehydrogenases in mitochondria and produce orange formazan. The more and faster the cell proliferation is, the deeper the color; the greater the cytotoxicity is, the lighter the color. For the same cells, the color depth has a linear relationship with the number of cells. Solvent DMSO is used in control group, and pure lysine ester produced by strain Alcanivorax dieselolei T6-6 dissolved in DMSO are used in experimental group. Cells are hepatoma cells 7402 and normal hepatocytes 7702 (available from Sino-US Joint Venture Biohermes Biomedical Technology Ltd). Medicinal concentration is 100 ug/ml, and operation is taken according to kit instruction, with each step repeated three times. After medication, […] is detected in cellular fluid after culturing for 48 hours. Cell toxicity results are shown in Table 8: The medicine-to-cell suppression rate=[negative group (DMSO)−experimental group (dosed)]/negative group (DMSO). […] Accordingly, the active substances of lysine ester generated by the strain Alcanivorax dieselolei T6-6 have better cytotoxic activity.

Series [19] deals with normal hepatocytes 7702. In words: Cytotoxic activity test, Cell Counting Kit-8. The format is cell-based. The settings on record: 100 ug/ml, 48 hours.
Text: as §3

*1 amine or outer side, *2 acyl side, *3 side chain or, on linkers, in order; H or OH if unused. Where a SMILES comes first, the peptide text is derived from it. Bridges are numbered along the chain shown (N, C = ends). [ ]: non-standard residue; d: D form. X1 = CC(C)CCCCCCCCC[C@H](CC(=O)[*:1])O[*:2]

Consider `CCCCCCCCCCCCCC1CC(=O)N1CCCCC(N)C(=O)O` (centres unmarked) [2-amino-6-(2-oxo-4-tridecyl-azetidine-1-yl) hexanoic acid], for which the “surface tension of water after adding component” value in series [1] (300 ul unconcentrated surfactant added to 20 ml DDW, water alone 78.6) is listed as 32.3. Moreover, the “surface tension reduced to” value in [1] (summary statement) is 26-28 mN m-1. For the same compound, in [2] (summary statement), the CMC value came out at 32 mg 1-1. In series [2], this compound displayed a CMC of 32 mg/L. In [3], this compound showed an MAD of 0.105 ± 0.05 µg. Besides, the “emulsifying activity compared with Tween 20 and Triton X-100” value in series [4] (FIG. 12) is “higher emulsifying activity”. The “emulsifying activity (emulsion stable value)” value in [4] (four other organics (n-hexane, dimethylbenzene, hexadecane, petroleum ether)) is reported as “more than 75%”; in [4] (olive oil), 83±1%. For the same compound, the “time emulsion is maintained” value in [4] (olive oil, room temperature) is 48 h. For the same compound, the “pH of highest activity” value in series [5] (oil expansion experiment, pH 2 to 10) is given as 8. Moreover, the oil expansion diameter result in [5] (treated at 121° C. for 15 minutes) is “about 3.5 cm”. Also, the Inhibition zone in series [6] came out at 13.7 mm; in series [7] it was 10.4 mm; in [8] it was 10.9 mm; in series [9], 7.2 mm; in [10] it was 11.7 mm; in series [11] it was 14.2 mm. The figures for the Inhibition zone in series [12], in series [13] and in series [14] were 10.19 mm, 16.3 mm and 12.1 mm, respectively. The suppression effect entry in series [15], in series [16] and in series [17] was “no suppression effect” throughout. The medicine-to-cell suppression rate amounted to 92.74% in series [18] and 67.32% in series [19]. Besides, the figures for the “cell culture fluid OD600” value in series [18] (DMSO control 1.667) and in series [19] (DMSO control 0.863) were 0.121 and 0.282, respectively.
In turn, `CCCCCCCCCCCCOS(=O)(=O)[O-].[Na+]` [SDS] showed a CMC in [2] of 23 mg/L. The compound also registered an MAD in [3] of 6.0 ± 0.12 µg.
The compound `CC(C)CCCCCCCCC[C@@H]1CC(=O)N[C@@H](CCC(=O)O)C(=O)N[C@@H](CC(C)C)C(=O)N[C@H](CC(C)C)C(=O)N[C@@H](C(C)C)C(=O)N[C@@H](CC(=O)O)C(=O)N[C@H](CC(C)C)C(=O)N[C@@H](CC(C)C)C(=O)O1` [Surfactin] (EL[dL]VD[dL]L; linker N-C via X1) came in with a CMC in series [2] of 45 mg/L.
For Rhamnolipid, the CMC in series [2] was determined as 50 mg/L.
For Triton X-100, the MAD in series [3] was determined as 0.3 ± 0.08 µg.
